Like-named read-outs stand apart in the source and are kept apart here. Some results are limits rather than exact numbers.

By EC50 is commonly meant the concentration that produces a half-maximal response. The CC50 is the concentration that lowers cell viability or growth by half.

Holding throughout (format): cell-based
For one data set, the system named is HBV. Nature of the data set: Anti-viral assay in HepG2.2.15 cells: anti-HBV activity, HBV DNA in culture medium by qPCR. The protocol: (§1) HepG2.2.15 (the HepG2.2.15 cell line can be produced by transfection of the HepG2 cell line as described in Sells, Chen, and Acs 1987 (Proc. Natl. Acad. Sci. USA 84: 1005-1009), and the HepG2 cell line is available from ATCC® under number HB-8065™)
(§2) HepG2.2.15 cells were plated into 96-well plate in 2% FBS culture medium at the density of 40,000 cells/well and 5,000cells/well for HBV inhibitory activity and cytotoxicity determination, respectively. After incubation at 37° C., 5% CO2 overnight, cells were treated with medium containing compounds for 6 days with medium and compounds refreshed after 3 days of treatment. Each compound was tested in a 1:3 serial dilutions at 8 different concentrations in triplicate. The highest concentration of the compounds was 10 uM or 1 uM for anti-HBV activity assay and 100 uM for cytotoxicity determination.
The change of HBV DNA level induced by the compounds was assessed by quantitative real-time polymerase chain reaction (qPCR). Briefly, the HBV DNA in the culture medium was extracted using QIAamp 96 DNA Blood Kit according to the manual and then quantified by real-time PCR assay using the primers and probe in the table 1 below.
(§3) EC50 and CC50 values are calculated by the […] PRISM software.

The test system of another data set is HepG2.2.15 cells. Description: Cytotoxicity determination in HepG2.2.15 cells (CCK-8 assay). As to conditions: 6 days treatment, CCK-8, highest concentration 100 uM. How it is done:
as §1, §2
(§4) Cell viability was determined by CCK-8 assay. After 6 days of compounds treatment, 20 μl CCK-8 reagents were added to each well of cytotoxicity assay plates. Cell plates were incubated at 37° C., 5% CO2 for 2.5 h. The absorbance at 450 nm wavelength and the absorbance at 630 nm wavelength as reference was measured.
as §3

Test in data set [1]: as above
The settings on record: human, 6 days treatment, CCK-8, highest concentration 100 uM. How it is done: as §1, §2, §4, §3

The mark [2] stands for this setting: HepG2.2.15 cells, 6 days treatment, HBV DNA by qPCR, read-out: EC50.
[3] abbreviates: Hepatitis B virus, HepG2.2.15, 144 h, HepG2.2.15 cells, 6 days treatment, HBV DNA by qPCR, read-out: EC50.

With `COC(=O)C1=C(CN2CCN3C(=S)N(CC(C)(C)C(=O)O)CC3C2)NC(c2nccs2)=NC1c1ccc(F)cc1Cl` (single isomer, unassigned) [Compound 4A, 3-(7-((6-(2-chloro-4-fluorophenyl)-5-(methoxycarbonyl)-2-(thiazol-2-yl)-3,6-dihydropyrimidin-4-yl)methyl)-3-thioxohexahydroimidazo[1,5-a]pyrazin-2(3H)-yl)-2,2-dimethylpropanoic acid], in the data set with HBV (setting [2]), the EC50 came to 49 nM. The molecule also had a CC50 in the data set with HepG2.2.15 cells of 52800 nM.

With `CCOC(=O)C1=C(CN2CCN3C(=S)N([C@H]4CC[C@@H](C(=O)O)C4)CC3C2)NC(c2nccs2)=N[C@H]1c1cccc(F)c1C` (single isomer, unassigned) [Compound 24D], the EC50 in the data set with HBV (setting [2]) stood at 35 nM. The same molecule showed a CC50 with HepG2.2.15 cells of 9400 nM.

As to `CCOC(=O)C1=C(CN2CCN3C(=S)N(CC(C)C(=O)O)C[C@@H]3C2)NC(c2nccs2)=N[C@H]1c1cccc(F)c1C` (single isomer, unassigned) [Compound 27B], in the data set with HBV (setting [2]), the EC50 is 2.6 nM. Also, the CC50 in the data set with HepG2.2.15 cells was determined as 25300 nM.

Take `CCOC(=O)C1=C(CN2CCN3C(=S)N(C)C[C@@H]3[C@H]2C(=O)O)NC(c2nccs2)=N[C@H]1c1cccc(F)c1C` (single isomer, unassigned) [Compound 35B]: in the data set on HBV (setting [2]), the EC50 came to 1.1 nM. In the data set with HepG2.2.15 cells, this molecule had a CC50 of 46600 nM.

For `CCOC(=O)C1=C(CN2CCN3C(=S)N(C[C@@H](C)C(=O)O)C[C@@H]3C2)NC(c2ncoc2C)=NC1c1cccc(F)c1C` (single isomer, unassigned) [Compound 32B, 3-(7-((5-(Ethoxycarbonyl)-6-(3-fluoro-2-methylphenyl)-2-(5-methyloxazol-4-yl)-3,6-dihydropyrimidin-4-yl)methyl)-3-thioxohexahydroimidazo[1,5-a]pyrazin-2(3H)-yl)-2-methylpropanoic acid], the EC50 in the data set on HBV (setting [2]) came out at 27.4 nM. The CC50 with HepG2.2.15 cells came to 42500 nM.

In the case of `CCOC(=O)C1=C(CN2CCN3C(=S)N(c4ccc(C(=O)O)cc4)CC3C2)NC(c2nccs2)=N[C@H]1c1cccc(F)c1C` (stereo in doubt) [Compound 23, 4-(7-((5-(ethoxycarbonyl)-6-(3-fluoro-2-methylphenyl)-2-(thiazol-2-yl)-3,6-dihydropyrimidin-4-yl)methyl)-3-thioxohexahydroimidazo[1,5-a]pyrazin-2(3H)-yl)benzoic acid], in the data set on HBV (setting [3]), the EC50 amounted to 4.6 nM. In data set [1], this molecule returned a CC50 at 6 days of 2600 nM.

In the case of `CCOC(=O)C1=C(CN2CCN3C(=S)N(CC(CC)C(=O)O)CC3C2)NC(c2nccs2)=N[C@H]1c1cccc(F)c1C` (stereo partly drawn) [Compound 17, 2-((7-(((S)-5-(ethoxycarbonyl)-6-(3-fluoro-2-methylphenyl)-2-(thiazol-2-yl)-3,6-dihydropyrimidin-4-yl)methyl)-3-thioxohexahydroimidazo[1,5-a]pyrazin-2(3H)-yl)methyl)butanoic acid], the EC50 in the data set on HBV (setting [3]) worked out at 5.6 nM. This molecule registered a CC50 at 6 days in data set [1] of 13200 nM.

Turning to `CCOC(=O)C1=C(CN2CCN3C(=S)N([C@@H]4CC[C@H](C(=O)O)C4)CC3C2)NC(c2nccs2)=N[C@H]1c1cccc(F)c1C` (single isomer, unassigned) [Compound 24B], the EC50 in the data set on HBV (setting [2]) turned out to be 1 nM. This molecule also showed a CC50 in the data set with HepG2.2.15 cells of 9600 nM.

Take `CCOC(=O)C1=C(CN2CCN3C(=S)N(CC(C)(C)C(=O)O)CC3C2)NC(c2nccs2)=N[C@H]1c1cccc(F)c1C` (single isomer, unassigned) [Compound 1B]: the EC50 in the data set on HBV (setting [2]) turned out to be 43 nM. The same molecule displayed a CC50 with HepG2.2.15 cells of 22400 nM.

`COC(=O)C1=C(CN2CCN3C(=S)N(CC(C)(C)C(=O)O)CC3C2)NC(c2nccs2)=NC1c1ccc(F)c(F)c1C` (single isomer, unassigned) [Compound 12B, 3-(7-((6-(3,4-Difluoro-2-methylphenyl)-5-(methoxycarbonyl)-2-(thiazol-2-yl)-3,6-dihydropyrimidin-4-yl)methyl)-3-thioxohexahydroimidazo[1,5-a]pyrazin-2(3H)-yl)-2,2-dimethylpropanoic acid]: the EC50 in the data set with HBV (setting [3]) amounted to 2 nM. In data set [1], it took 14500 nM to reach half-maximal cytotoxicity (CC50 at 6 days).

For `CCOC(=O)C1=C(CN2CCN3C(=S)N(CC(C)(C)C(=O)O)C[C@@H]3C2)NC(c2nccs2)=N[C@@H]1c1ccc(F)nc1C` (single isomer, unassigned) [Compound 37, 3-(7-((5-(ethoxycarbonyl)-6-(6-fluoro-2-methylpyridin-3-yl)-2-(thiazol-2-yl)-3,6-dihydropyrimidin-4-yl)methyl)-3-thioxohexahydroimidazo[1,5-a]pyrazin-2(3H)-yl)-2,2-dimethylpropanoic acid], in the data set with HBV (setting [3]), the EC50 came out at 100 nM. Further, in data set [1], the CC50 at 6 days is ≥ 100000 nM.

Take `CCOC(=O)C1=C(CN2CCN3C(=S)N(CC(C)(C)C(=O)O)C[C@@H]3C2)NC(c2ncc(F)cc2F)=N[C@H]1c1cccc(F)c1C` (single isomer, unassigned) [Compound 22A, 3-(7-((2-(3,5-difluoropyridin-2-yl)-5-(ethoxycarbonyl)-6-(3-fluoro-2-methylphenyl)-3,6-dihydropyrimidin-4-yl)methyl)-3-thioxohexahydroimidazo-[1,5-a]pyrazin-2(3H)-yl)-2,2-dimethylpropanoic acid]: in the data set on HBV (setting [3]), the EC50 came to 8.9 nM. This molecule also gave a CC50 at 6 days in data set [1] of 12800 nM.

In the case of `COC(=O)C1=C(CN2CCN3C(=S)N(CC(C)(C)C(=O)O)CC3C2)NC(c2nccs2)=NC1c1ccc(F)c(F)c1Cl` (single isomer, unassigned) [Compound 11A, 3-(7-((6-(2-Chloro-3,4-difluorophenyl)-5-(methoxycarbonyl)-2-(thiazol-2-yl)-3,6-dihydropyrimidin-4-yl)methyl)-3-thioxohexahydroimidazo[1,5-a]pyrazin-2(3H)-yl)-2,2-dimethylpropanoic acid], the half-maximal effective concentration (EC50) in the data set with HBV (setting [3]) stood at 1.9 nM. The same molecule returned a CC50 at 6 days in data set [1] of 16200 nM.

With `CCOC(=O)C1=C(CN2CCN3C(=S)N(CC4(C(=O)O)CC4)CC3C2)NC(c2nccs2)=N[C@H]1c1cccc(F)c1C` (single isomer, unassigned) [Compound 9B], in the data set on HBV (setting [2]), the EC50 was determined as 0.7 nM. The same molecule came in with a CC50 with HepG2.2.15 cells of 14600 nM.

As to `CCOC(=O)C1=C(CN2CCN3C(=NC#N)N(CC(C)(C)C(=O)O)CC3C2)NC(c2nccs2)=N[C@H]1c1cccc(F)c1C` (stereo partly drawn) [Compound 2, 3-(3-(cyanoimino)-7-(((S)-5-(ethoxycarbonyl)-6-(3-fluoro-2-methylphenyl)-2-(thiazol-2-yl)-3,6-dihydropyrimidin-4-yl)methyl)hexahydroimidazo[1,5-a]pyrazin-2(3H)-yl)-2,2-dimethylpropanoic acid], the EC50 in the data set with HBV (setting [3]) stood at 49 nM. This molecule yielded a CC50 at 6 days in data set [1] of 55400 nM.

Molecule `CCOC(=O)C1=C(CN2CCN3C(=NC(C)=O)N(CC(C)(C)C(=O)O)CC3C2)NC(c2nccs2)=N[C@H]1c1cccc(F)c1C` (stereo partly drawn) [Compound 8, (S)-3-(3-(Acetylimino)-7-((5-(ethoxycarbonyl)-6-(3-fluoro-2-methylphenyl)-2-(thiazol-2-yl)-3,6-dihydropyrimidin-4-yl)methyl)hexahydroimidazo[1,5-a]pyrazin-2(3H)-yl)-2,2-dimethylpropanoic acid] had an EC50 in the data set on HBV (Hepatitis B virus, HepG2.2.15, 144 h) of 790 nM. Further, the CC50 at 6 days in data set [1] is > 100000 nM.

Source of the values: patent US20230165865A1, “HETEROARYLDIHYDROPYRIMIDINE DERIVATIVES AND METHODS OF TREATING HEPATITIS B INFECTIONS” (Janssen Pharmaceutica NV, priority 2018, published 2023).
